The values that follow come from patent publication US20260209199A1, “TRISULFIDE COMPOUND” (Kyowa Pharma Chemical Co., Ltd., priority 2022, published 2026).

Data set [1] in a line: physchem.
Procedure: (§1) Then, 10 mL of octanol was added to each aqueous solution and shaken for 1 minute. 2 mL each was taken from the aqueous layer and the octanol layer, centrifuged, and allowed to stand for 1 hour. 1 mL was precisely measured from the standing solution, 2-propanol was added, and the volume was made up to 10 mL. […] (log P=log10 (concentration in octanol layer/concentration in aqueous layer))
The conditions of data set [2]: disclosed in Patent Literature 2 (WO2022/045052); cited from earlier work.
Data set [3] in a line: Octanol/water partition coefficient (log P), HPLC. To be noted: octanol/purified water, log10(concentration in octanol layer/concentration in aqueous layer).
Procedure: as §1

In the case of `CC1(C)OCC(C)(C)[C@H](C(=O)NCCC(=O)NCCSSSCCNC(=O)CCNC(=O)[C@@H]2OC(C)(C)OCC2(C)C)O1` [Acetonide-PTN-SSS, acetonide derivative of pantethine trisulfide], the logP in data set [1] came to 1.56. `CC(C)(CO)[C@@H](O)C(=O)NCCC(=O)NCCSSSCCNC(=O)CCNC(=O)[C@H](O)C(C)(C)CO` [PTN-SSS, Pantethine trisulfide]: the “hydrogen sulfide elimination effect” value in data set [2] is “has a hydrogen sulfide elimination effect”. Also, the “Partition coefficient (logP)” value in data set [3] is listed as −0.39. The molecule `CC(=O)OCC(C)(C)[C@@H](O)C(=O)NCCC(=O)NCCSSSCCNC(=O)CCNC(=O)[C@H](O)C(C)(C)COC(C)=O` [Ac-PTN-SSS, acetyl derivative of pantethine trisulfide] registered a logP in data set [1] of 0.91.

As a reminder, the logP is the decadic logarithm of the partition coefficient of the neutral form, usually between octanol and water. A higher logP goes with higher lipophilicity.
